# Experimental data taken from patent US9586885B2, “Compounds for use in the treatment of inflammatory bowel disease” (Venantius Limited, priority 2011, dated 2017).
# Where two headings read alike, the source gives them in different places.
# Columns and labels:
# 5% DSS colitis = assay: Acute murine 5% DSS colitis model; assay type: in vivo; conditions: for effect on DAI compared to vehicle control: FIG. 5; for inhibition of colon shortening (colon length) day 7 versus vehicle: FIG. 10; for colon pathology (histology score) relative to vehicle: FIG. 12; for colon IL1β level versus DSS vehicle / colon TNFα level versus DSS vehicle / colon IL6 level versus DSS vehicle / reduction of colonic myeloperoxidase (MPO) activity: day 7; for colon IL1β level versus DSS vehicle: FIG. 14(a); for colon TNFα level versus DSS vehicle: FIG. 14(b); for colon IL6 level versus DSS vehicle: FIG. 14(c); for reduction of colonic myeloperoxidase (MPO) activity: FIG. 13; for DAI on the day of autopsy versus vehicle controls: FIG. 9
# From the text: The study is widely used as a model for studying the pathogenesis of UC and also for screening new therapeutic interventions for the treatment of UC.
# In these studies, an acute colitis model was used, with 5% DSS administered in the drinking water of BALB/c mice. This dosage regime induces severe acute colitis, by days 7-8 mice had overt rectal bleeding and marked weight loss; unless sacrificed beforehand, all mice would have died by days 10-12.
# Specific Pathogen-Free BALB/c mice, 6-8 weeks of age, were obtained from a commercial supplier (Harlan UK). Mice were fed irradiated diet and housed in individually ventilated cages (Tecniplast UK) under positive pressure.
# DSS (5%) was dissolved in drinking water. Compounds were administered orally at a dose of 10 mg/kg or 30 mg/kg on days 0-7, and mice were culled on day 8 or day 9, depending on the severity of the disease. The mice were checked each day for morbidity and the weight of individual mice was recorded. Induction of colitis was determined upon autopsy, length of colon and histology. Colons were recovered and stored at −20° C. for immunological analysis. All of the compounds and experimental groups are randomly alphabetically labelled. Throughout experiments all data recording was performed in a blind manner. The codes on boxes/groups were not broken until after the data was analysed i.e. boxes labelled A, B, C etc were identified as untreated, DSS-treated, or DSS+compound-treated.
# To quantify the extent of colitis, a disease activity index (DAI) was determined based on weight loss, faecal blood and stool consistency. A score was given for each parameter, with the sum of the scores used as the DAI. For each treatment group n=8.
# All compounds were prepared for oral gavage (0.1 mL per os (p.o.) per 10 g body weight) as a suspension in 0.5% carboxymethyl cellulose/2% Tween 80, at a dose of 3-30 mg/Kg.
# [1] = Solubility in water and buffers; assay type: physicochemical; conditions: for aqueous solubility (in words): free acid enantiomers
# Experimental: The sodium salt, potassium salt, calcium salt, α-methylbenzylamine salt and N-Methyl-(D)-Glucamine salt were synthesised.
# The solubility of the four compounds was determined: […]
# [2] = Partition coefficient by HPLC method (reverse phase C18); assay type: physicochemical; conditions: for Acid Log10 POW: acidic pH; for Basic Log10 POW: alkaline pH; for Neutral Log10 POW: neutral pH
# [3] = tested on: chronic colitis in IL10^--/-- mice; assay: Chronic IL10-/- colitis model; assay type: in vivo, BALB/c strain mice; conditions: 300 mg/kg/week oral, MWF
# Experimental: FIG. 15 Is a grph showing weight loss in IL10^--/--mice treated with vehicle or compound 6. Mice were administered compound 6 (300 mg/kg/week) or vehicle orally on a Monday/Wednesday/Friday (MWF) dosing schedule. Mice were ˜4 weeks of age at start of experiment and were treated for 9 weeks. Mice were weighed weekly and data are presented as Mean±SEM from 9-12 mice per group. Mice were monitored for overt disease, rectal prolapse, and moribund animals were humanely killed;
# Mice with a deletion in the IL10^--/-- gene spontaneously develop chronic colitis, with the age of onset and the severity of the disease being dependent on background mouse strain and the conditions in which the animals are housed. The onset of colitis in IL10^--/-- mice housed under the conditions used in this study was also strain dependent, with an earlier onset and greater severity, in terms of mortality, in BALB/c strain mice relative to C57BL/6 strain animals. In this experiment, animals received oral treatment on a MWF regime over 9 weeks. Initially, both groups of mice progressively gain weight (FIG. 15). […] By week 9 animals had marked weight loss, with one moribund animal humanely killed on day 60 in each group. As other mice were losing weight and developing clinical symptoms of disease, both groups were culled at week 9 (day 63) and analysed. […] Serum was recovered from mice and Serum Amyloid A (SAA) and was analysed as a marker for severity of colitis.
# [4] = 10 mg/kg daily for 7 days, vehicle 9.3±0.51, FIG. 6
# [5] = 30 mg/kg p.o. daily for 7 days, vehicle controls 9.0+0.53, FIG. 4
smiles,measurement,setting,value
"O=C(O)c1ccc(C[C@@]2(C3=Cc4ccccc4C3)Cc3ccccc3[C@H]2O)cc1 (single isomer, unassigned) [Compound 2]",disease activity index (DAI) at day 7,5% DSS colitis; [4],2.1±0.7
same,activity in 5% DSS murine colitis model (conclusion),5% DSS colitis; 30 mg/kg p.o. daily for 7 days,highly active
same,disease activity index (DAI) at day 7,5% DSS colitis; [5],2.5±0.71
same,aqueous solubility (in words),[1],limited aqueous solubility
"O=C(O)c1ccc(C[C@]2(C3=Cc4ccccc4C3)Cc3ccccc3[C@@H]2O)cc1 (single isomer, unassigned) [Compound 3]",activity in 5% DSS murine colitis model (conclusion),5% DSS colitis; 30 mg/kg p.o. daily for 7 days,minimal activity
same,disease activity index (DAI) at day 7,5% DSS colitis; [5],5.3±0.6
same,DAI versus vehicle at day 6,"5% DSS colitis; 30 mg/kg p.o. daily, FIG. 3",no statistical (P>0.05) difference
"O=C(O)c1ccc(C[C@@]2(C3=Cc4ccccc4C3)Cc3ccccc3[C@@H]2O)cc1 [Compound 4, 4-(((1R,2S)-1-hydroxy-2,3-dihydro-1H,1′H-2,2′-biinden-2-yl)methyl)benzoic acid]",activity in 5% DSS murine colitis model (conclusion),5% DSS colitis; 30 mg/kg p.o. daily for 7 days,almost devoid of activity
same,DAI versus vehicle at any time point,"5% DSS colitis; 30 mg/kg p.o. daily for 7 days, FIG. 3",without activity
"O=C(O)c1ccc(C[C@]2(C3=Cc4ccccc4C3)Cc3ccccc3[C@H]2O)cc1 [Compound 5, 4-(((1S,2R)-1-hydroxy-2,3-dihydro-1H,1′H-2,2′-biinden-2-yl)methyl)benzoic acid]",effect on DAI compared to vehicle control,5% DSS colitis; 10 mg/kg daily for 7 days,no significant (P>0.05) effect
same,activity in 5% DSS murine colitis model (conclusion),5% DSS colitis; 30 mg/kg p.o. daily for 7 days,highly active
same,disease activity index (DAI) at day 7,5% DSS colitis; [5],3.2±0.73
same,aqueous solubility (in words),[1],limited aqueous solubility
same,Acid Log10 POW,[2],3.9
same,Basic Log10 POW,[2],3.7
same,Neutral Log10 POW,[2],3.7
"O=C(O)c1ccc(C[C@@]2(C3=Cc4ccccc4C3)Cc3ccccc3[C@H]2O)cc1 [Compound 6, 6-(Methylamino)hexane-1,2,3,4,5-pentanol 4-(((1S,2S)-1-hydroxy-2,3-dihydro-1H,1′H-2,2′-biinden-2-yl)methyl)benzoate]",inhibition of colon shortening (colon length) day 7 versus vehicle,5% DSS colitis; 3 mg/kg,did not have a significant effect
same,colon pathology (histology score) relative to vehicle,"5% DSS colitis; 10 mg/Kg, P<0.01",highly statistically significant reduction
same,disease activity index (DAI) at day 7,5% DSS colitis; [4],3.3±0.52
same,inhibition of colon shortening (colon length) day 7 versus vehicle,5% DSS colitis; 10 mg/kg,did have a significant effect
same,therapeutic efficacy in the DSS model relative to prednisolone,5% DSS colitis; 30 mg/Kg versus prednisolone 5 mg/Kg,"comparable, or better, efficacy relative to prednisolone"
same,colon pathology (histology score) relative to vehicle,"5% DSS colitis; 30 mg/Kg, P<0.01",highly statistically significant reduction
same,colon length day 7 compared with Prednisolone,"5% DSS colitis; 30 mg/kg versus Prednisolone 5 mg/kg, P<0.05",significantly better than Prednisolone
same,colon IL1β level versus DSS vehicle,5% DSS colitis; 30 mg/kg,"significant (P<0.05, 30 mg/kg) and dose-dependant reduction"
same,colon TNFα level versus DSS vehicle,5% DSS colitis; 30 mg/kg,"significant (P<0.05, 30 mg/kg) and dose-dependant reduction"
same,colon IL6 level versus DSS vehicle,5% DSS colitis; 30 mg/kg,"significant (P<0.05, 30 mg/kg) and dose-dependant reduction"
same,reduction of colonic myeloperoxidase (MPO) activity,"5% DSS colitis; 30 mg/kg, P<0.05",63%
same,inhibition of colon shortening (colon length) day 7 versus vehicle,5% DSS colitis; 30 mg/kg,did have a significant effect
same,"severity of colitis, multiple parameters of disease","5% DSS colitis; 3, 10 and 30 mg/Kg oral daily for 7 days, dose-dependent",ameliorated the severity of colitis
same,DAI on the day of autopsy versus vehicle controls,"5% DSS colitis; 3-30 mg/kg, each dose level",significantly (P<0.05−P<0.01) lower DAI
same,overt reactions in mice,"5% DSS colitis; oral daily for 7 days, 3, 10 and 30 mg/Kg",no overt reactions
same,survival over 9 weeks by Kaplan-Meier analysis versus vehicle,[3],no statistical difference in survival
same,mortalities,"[3]; 9 weeks, vehicle 25%",9.2%
same,weight gain,"[3]; 9 weeks, vehicle stopped gaining from week 5, FIG. 15",maintained weight gain until week 8
same,Serum Amyloid A (SAA) levels relative to vehicle,"[3]; week 9, FIG. 16",significantly (P<0.05; Student's t-test) reduced SAA levels
same,extent of colon pathology (histology score of distal colon) relative to vehicle,"[3]; week 9, P<0.05, FIG. 18",significantly reduced
same,solubility,"[1]; Milli-RO water, * = estimated value, read-out: solubility Milli-RO H20",> 60 mg/mL
same,solubility,"[1]; aqueous buffer, pH 7.0 buffer, * = estimated value, read-out: solubility pH 7.0 Buffer",> 60 mg/mL
same,solubility,"[1]; aqueous buffer, pH 9.0 buffer, * = estimated value, read-out: solubility pH 9.0 Buffer",> 3 mg/mL
same,Acid Log10 POW,[2],2.6
same,Basic Log10 POW,[2],4.3
same,Neutral Log10 POW,[2],3.5
"CNCC(O)C(O)C(O)C(O)CO.O=C(O)c1ccc(C[C@]2(C3=Cc4ccccc4C3)Cc3ccccc3[C@H]2O)cc1 [Compound 7, 6-(Methylamino)hexane-1,2,3,4,5-pentanol 4-(((1S,2R)-1-hydroxy-2,3-dihydro-1H,1′H-2,2′-biinden-2-yl)methyl)benzoate]",effect on DAI compared to vehicle control,5% DSS colitis; 10 mg/kg daily for 7 days,no significant (P>0.05) effect
same,solubility Milli-RO H20,"[1]; Milli-RO water, * = estimated value, listed as Compound 5 N-Methyl-D-Glucamine salt",">60,000* μg/mL"
same,solubility pH 4.0 Buffer,[1]; pH 4.0 buffer,0.14 μg/mL
same,solubility pH 7.0 Buffer,"[1]; pH 7.0 buffer, * = estimated value, listed as Compound 5 N-Methyl-D-Glucamine salt",">60,000* μg/mL"
same,solubility pH 9.0 Buffer,"[1]; pH 9.0 buffer, * = estimated value, listed as Compound 5 N-Methyl-D-Glucamine salt",">60,000* μg/mL"
same,Acid Log10 POW,[2],3.8
same,Basic Log10 POW,[2],3.5
same,Neutral Log10 POW,[2],3.5
"C[C@]12C=CC(=O)C=C1CC[C@@H]1[C@@H]2[C@@H](O)C[C@@]2(C)[C@H]1CC[C@]2(O)C(=O)CO [Prednisolone, reference compound]",colon pathology (histology score) relative to vehicle,5% DSS colitis; 5 mg/Kg,no significant improvement
same,colon IL1β level versus DSS vehicle,5% DSS colitis; 5 mg/kg,reduced (p<0.05)
same,colon TNFα level versus DSS vehicle,5% DSS colitis; 5 mg/kg,reduced (p<0.05)
same,colon IL6 level versus DSS vehicle,5% DSS colitis; 5 mg/kg,reduced (p<0.05)
same,reduction of colonic myeloperoxidase (MPO) activity,"5% DSS colitis; 5 mg/kg, P<0.05",54%
same,DAI on the day of autopsy versus vehicle controls,5% DSS colitis; 5 mg/kg,reduced DAI scores
same,inhibition of colon shortening (colon length) day 7 versus vehicle,5% DSS colitis; 5 mg/kg,did have a significant effect
